Measurements taken from patent US9066866B2, “Direct cellular energy delivery system” (University of Louisville Research Foundation, Inc., priority 2002, dated 2015).

Legend:
[1] = system: HUVEC; test: Vesicle absorption and release of 3H-ATP into HUVEC; format: cell-based, human
Method: To determine if ATP is also introduced into cells like carboxyfluorescein, vesicle absorption and release of ATP into HUVEC was followed using the ^3H-ATP-containing vesicles of Example 2. The vesicles were incubated with HUVEC for 5, 10, 15, 30, 45, 60, 90, 120, or 240 minutes. The result shown in FIG. 1 is the partition coefficient of ATP inside the cells after 1 hour. […] When the cells were washed repeatedly there was a significant change in the radioactivity of the cells.

[2] = system: amputated hind legs; test: Limb replantation after perfusion of amputated hind legs; format: in vivo, rats; conditions: rat
Method: Hind legs were amputated from rats, and the major feed arteries for the severed limbs were cannulated for infusion of ATP-SUV, (1 mM ATP) solution. The limbs were perfused with ATP-SUV or control solutions (see Table 1) every 3 hours, or as deemed necessary by the change in tissue ATP levels. The arterial pressure of the limbs was monitored during infusion to decrease the chance of flow-induced injury, and to monitor the overall preservation of the severed limbs (higher perfusion pressures may indicate limb morbidity). Following the preservation period, the limbs were flushed with Ringers to remove traces of ATP-SUV. The limbs were then surgically reattached, and external indices of limb function after anastomoses were evaluated (limb color, evidence of microthrombi, coagulation, limb temperature). The animals prior to and following replantation received heparin to prevent hemostasis. In addition, animals were placed on antibiotic therapy to reduce infection. Control limbs were perfused with vehicle only, vehicle and ATP only, or vehicle and SUVs only.

## Nc1ncnc2c1ncn2[C@@H]1O[C@H](COP(=O)(O)OP(=O)(O)OP(=O)(O)O)[C@@H](O)[C@H]1O [^3H-ATP only, adenosine-5′-triphosphate (ATP)]
[1]; 3H-ATP
  change in radioactivity of the cells after repeated washes: complete loss of radioactivity
[1]; after 1 hour, FIG. 1
  partition coefficient of ATP inside the cells (percent incorporation, rank order): then ^3H-ATP only, without vesicles
[1]; from wash and fusion data
  mode of cell entry concluded: does not enter cells
[2]
  Limb outcome: necrosis
